Results from patent US20250340552A1, “COMPOUNDS, COMPOSITIONS AND METHODS OF TREATING DISORDERS” (HOTSPOT THERAPEUTICS, INC., priority 2022, published 2025).
Where two headings read alike, the source gives them in different places.

Biological target: T1, Cbl-B (Homo sapiens, UniProt Q13191)
T1 construct: MSD-Based Assay for Degradation of Cbl-B in THP-1 Cells; endogenous in cells; host or cells: THP-1 (title) / Jurkat (protocol text)
Test: MSD-based assay for degradation of Cbl-B in THP-1 cells
Type: cell-based
Protocol: MSD-Based Assay for Degradation of Cbl-B in THP-1 Cells
Assay plates were then shaken at 600 rpm for 5 minutes, followed by incubation for 24 hours in the 37° C. TC incubator. […] Cell debris was then spun down at maximum speed (about 3200 g) for 30 min and lysates frozen in the −80° C. fridge. Meanwhile, MSD plates (L15XA-3) were coated overnight at 4° C. with 1 ug/mL capture antibody (Anti-Cbl-B antibody, 246C5a and Mouse mAB, ab54362). […] Blocking buffer was 3% Blocker A (MSD, R93BA-4) in TBST. Plates were washed 3× with 150 ul/well of 1×TBST and sample lysates (70 ul/well) then added, followed by shaking for 1 hr at RT, 600 rpm. […] Plates were again washed 3× with 150 ul/well of 1×TBST, followed by addition of Secondary Detection antibody, SULFO-TAG anti-species antibody (Anti Rabbit Antibody (R32AB-5) MSD, R32AB-1) at a final concentration of 1 ug/ml and 25 uL/well, followed by shaking for 1 hr at RT, 600 rpm. Plates were again washed 3× with 150 ul/well of 1×TBST, followed by addition of 1×MSD reading buffer (MSD, R92TC-2), 150 ul/well, diluted from 4× with water.
Compound Dmax were binned into A through D as follows: A indicates >70%, B indicates 50-70%, C indicates 30-50%, D indicates <30%.

[1] = Cbl-B degradation, Jurkat cells seeded (heading: THP-1 cells), 24 hours incubation, MSD readout
[2] = Cbl-B degradation, Jurkat cells seeded (heading: THP-1 cells), 24 hours incubation, MSD readout, read-out: Dmax

T1 sequence (Q13191 whole entry): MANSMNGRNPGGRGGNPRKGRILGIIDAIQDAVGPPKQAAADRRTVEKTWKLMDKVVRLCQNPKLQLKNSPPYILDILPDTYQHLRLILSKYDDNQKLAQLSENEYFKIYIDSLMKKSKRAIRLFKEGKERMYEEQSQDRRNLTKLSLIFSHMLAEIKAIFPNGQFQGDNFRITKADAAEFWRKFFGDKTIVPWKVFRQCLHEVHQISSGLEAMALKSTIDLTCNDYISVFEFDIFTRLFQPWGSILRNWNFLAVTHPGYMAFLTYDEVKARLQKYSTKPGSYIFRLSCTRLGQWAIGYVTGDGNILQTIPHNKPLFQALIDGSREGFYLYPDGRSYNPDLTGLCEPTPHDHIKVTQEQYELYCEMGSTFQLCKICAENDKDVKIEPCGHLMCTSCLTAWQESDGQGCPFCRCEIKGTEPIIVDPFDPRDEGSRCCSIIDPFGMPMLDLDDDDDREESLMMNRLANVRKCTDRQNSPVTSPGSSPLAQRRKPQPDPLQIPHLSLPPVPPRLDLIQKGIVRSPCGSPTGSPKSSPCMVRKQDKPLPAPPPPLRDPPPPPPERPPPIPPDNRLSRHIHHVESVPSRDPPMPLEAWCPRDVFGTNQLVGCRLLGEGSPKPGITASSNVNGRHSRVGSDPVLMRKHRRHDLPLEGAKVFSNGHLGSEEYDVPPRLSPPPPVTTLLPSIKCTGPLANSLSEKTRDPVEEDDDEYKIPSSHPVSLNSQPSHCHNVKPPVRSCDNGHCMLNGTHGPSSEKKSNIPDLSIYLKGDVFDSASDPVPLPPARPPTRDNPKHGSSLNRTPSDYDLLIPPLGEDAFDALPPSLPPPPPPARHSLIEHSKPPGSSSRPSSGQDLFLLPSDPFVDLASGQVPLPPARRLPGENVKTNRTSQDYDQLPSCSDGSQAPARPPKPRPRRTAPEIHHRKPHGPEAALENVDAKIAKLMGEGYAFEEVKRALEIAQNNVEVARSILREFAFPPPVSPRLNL

In the case of `CN(CCCN1CCN(Cc2cc(C(F)(F)F)c3cn(-c4cccc([C@H](c5nncn5C)C5CCC5)c4)c(=O)n3c2)CC1)C(=O)c1ccc(N2CCN(c3ccc4c(c3)CN([C@@H]3CCC(=O)NC3=O)C4=O)CC2)cc1` (single isomer, unassigned) [Compound 123], the DC50 [1] is reported as < 30 nM and the Dmax [2] is reported as > 70%.

In the case of `CN(CCCN1CCN(Cc2cc(C(F)(F)F)c3cn(-c4cccc([C@H](c5nncn5C)C5CCC5)c4)c(=O)n3c2)CC1)C(=O)c1ccc(N2CCN(c3ccc4c(c3)CN([C@H]3CCC(=O)NC3=O)C4=O)CC2)cc1` (single isomer, unassigned) [Compound 124], the DC50 [1] is reported as < 30 nM and the Dmax [2] is reported as > 70%.

For `Cn1cnnc1[C@@H](c1cccc(-n2cc3c(C(F)(F)F)cc(CN4CCN(CCc5ccc(N6CCN(c7ccc8c(c7)CN([C@@H]7CCC(=O)NC7=O)C8=O)CC6)cc5)CC4)cn3c2=O)c1)C1CCC1` (single isomer, unassigned) [Compound 125], the DC50 [1] was 30 to 300 nM and the Dmax [2] was 50 to 70%.

For `Cn1cnnc1[C@@H](c1cccc(-n2cc3c(C(F)(F)F)cc(CN4CCN(CCc5ccc(N6CCN(c7ccc8c(c7)CN([C@H]7CCC(=O)NC7=O)C8=O)CC6)cc5)CC4)cn3c2=O)c1)C1CCC1` (single isomer, unassigned) [Compound 126], the DC50 [1] was < 30 nM and the Dmax [2] was > 70%.

In the case of `Cn1cnnc1[C@@H](c1cccc(-n2cc3c(C(F)(F)F)cc(CN4CCC[C@H](OCCc5ccc(CN6CCN(c7ccc8c(c7)CN([C@@H]7CCC(=O)NC7=O)C8=O)CC6)cc5)C4)cn3c2=O)c1)C1CCC1` (single isomer, unassigned) [Compound 127], the DC50 [1] is reported as > 10000 nM and the Dmax [2] is reported as < 30%.

With `Cn1cnnc1[C@@H](c1cccc(-n2cc3c(C(F)(F)F)cc(CN4CCC[C@H](OCCc5ccc(CN6CCN(c7ccc8c(c7)CN([C@H]7CCC(=O)NC7=O)C8=O)CC6)cc5)C4)cn3c2=O)c1)C1CCC1` (single isomer, unassigned) [Compound 128] the DC50 [1] was < 30 nM and the Dmax [2] was 50 to 70%.

Work on `Cn1cnnc1[C@@H](c1cccc(-n2cc3c(C(F)(F)F)cc(CN4CCN(C(=O)CN5CCC(CN6CCN(c7ccc8c(c7)CN([C@H]7CCC(=O)NC7=O)C8=O)CC6)CC5)CC4)cn3c2=O)c1)C1CCC1` (single isomer, unassigned) [Compound 130] yielded a DC50 [1] of 30 to 300 nM and a Dmax [2] of 50 to 70%.

With `Cn1cnnc1CC1(c2cccc(-n3cc4c(C(F)(F)F)cc(CN5CCN(C(=O)CN6CCC(CN7CCN(c8ccc9c(c8)CN([C@@H]8CCC(=O)NC8=O)C9=O)CC7)CC6)CC5)cn4c3=O)c2)COC1` (single isomer, unassigned) [Compound 131] the DC50 [1] was > 10000 nM and the Dmax [2] was 30 to 50%.

For `Cn1cnnc1CC1(c2cccc(-n3cc4c(C(F)(F)F)cc(CN5CCN(C(=O)CN6CCC(CN7CCN(c8ccc9c(c8)CN([C@H]8CCC(=O)NC8=O)C9=O)CC7)CC6)CC5)cn4c3=O)c2)COC1` (single isomer, unassigned) [Compound 132], the DC50 [1] was < 30 nM and the Dmax [2] was 50 to 70%.

`Cn1cnnc1CC1(c2cccc(-n3cc4c(C(F)(F)F)cc(CN5CCN(CC(=O)N6CCC(CN7CCN(c8ccc9c(c8)CN([C@@H]8CCC(=O)NC8=O)C9=O)CC7)CC6)CC5)cn4c3=O)c2)COC1` (single isomer, unassigned) [Compound 133] was tested, and the DC50 [1] was 30 to 300 nM and the Dmax [2] was > 70%.

In the case of `Cn1cnnc1CC1(c2cccc(-n3cc4c(C(F)(F)F)cc(CN5CCN(CC(=O)N6CCC(CN7CCN(c8ccc9c(c8)CN([C@H]8CCC(=O)NC8=O)C9=O)CC7)CC6)CC5)cn4c3=O)c2)COC1` (single isomer, unassigned) [Compound 134], the DC50 [1] is reported as < 30 nM and the Dmax [2] is reported as > 70%.

For `CN(CCN(C)C(=O)c1ccc(N2CCN(c3ccc4c(c3)CN([C@@H]3CCC(=O)NC3=O)C4=O)CC2)cc1)Cc1cc(C(F)(F)F)c2cn(-c3cccc([C@H](c4nncn4C)C4CCC4)c3)c(=O)n2c1` (single isomer, unassigned) [Compound 139], the DC50 [1] was 300 to 1000 nM.

For `CN(CCN(C)C(=O)c1ccc(N2CCN(c3ccc4c(c3)CN([C@H]3CCC(=O)NC3=O)C4=O)CC2)cc1)Cc1cc(C(F)(F)F)c2cn(-c3cccc([C@H](c4nncn4C)C4CCC4)c3)c(=O)n2c1` (single isomer, unassigned) [Compound 140], the DC50 [1] was 30 to 300 nM.

For `CN(CCN(C)C(=O)c1cc(C(F)(F)F)c2cn(-c3cccc([C@H](c4nncn4C)C4CCC4)c3)c(=O)n2c1)C(=O)c1ccc(N2CCN(c3ccc4c(c3)CN([C@@H]3CCC(=O)NC3=O)C4=O)CC2)cc1` (single isomer, unassigned) [Compound 141], the DC50 [1] was > 10000 nM and the Dmax [2] was < 30%.

For `CN(CCN(C)C(=O)c1cc(C(F)(F)F)c2cn(-c3cccc([C@H](c4nncn4C)C4CCC4)c3)c(=O)n2c1)C(=O)c1ccc(N2CCN(c3ccc4c(c3)CN([C@H]3CCC(=O)NC3=O)C4=O)CC2)cc1` (single isomer, unassigned) [Compound 142], the DC50 [1] was > 10000 nM and the Dmax [2] was 30 to 50%.

Work on `Cn1cnnc1[C@@H](c1cccc(-n2cc3c(C(F)(F)F)cc(CN4CCC[C@@H](OCCc5ccc(CN6CCN(c7ccc8c(c7)CN([C@@H]7CCC(=O)NC7=O)C8=O)CC6)cc5)C4)cn3c2=O)c1)C1CCC1` (single isomer, unassigned) [Compound 143] yielded a DC50 [1] of 300 to 1000 nM and a Dmax [2] of 30 to 50%.

In the case of `Cn1cnnc1[C@@H](c1cccc(-n2cc3c(C(F)(F)F)cc(CN4CCC[C@@H](OCCc5ccc(CN6CCN(c7ccc8c(c7)CN([C@H]7CCC(=O)NC7=O)C8=O)CC6)cc5)C4)cn3c2=O)c1)C1CCC1` (single isomer, unassigned) [Compound 144], the DC50 [1] is reported as < 30 nM and the Dmax [2] is reported as 50 to 70%.

`CN(CCOC1CCN(Cc2cc(C(F)(F)F)c3cn(-c4cccc([C@H](c5nncn5C)C5CCC5)c4)c(=O)n3c2)CC1)C(=O)c1ccc(N2C3CC2CN(c2ccc4c(c2)CN([C@@H]2CCC(=O)NC2=O)C4=O)C3)cc1` (single isomer, unassigned) [Compound 145] was tested, and the DC50 [1] was > 10000 nM and the Dmax (THP-1) was 30 to 50%.

`CN(CCOC1CCN(Cc2cc(C(F)(F)F)c3cn(-c4cccc([C@H](c5nncn5C)C5CCC5)c4)c(=O)n3c2)CC1)C(=O)c1ccc(N2C3CC2CN(c2ccc4c(c2)CN([C@H]2CCC(=O)NC2=O)C4=O)C3)cc1` (single isomer, unassigned) [Compound 146] was tested, and the DC50 [1] was > 10000 nM and the Dmax [2] was < 30%.

For `CN(CCOCc1cc(C(F)(F)F)c2cn(-c3cccc([C@H](c4nncn4C)C4CCC4)c3)c(=O)n2c1)C(=O)c1ccc(N2CCN(c3ccc4c(c3)CN([C@@H]3CCC(=O)NC3=O)C4=O)CC2)cc1` (single isomer, unassigned) [Compound 147], the DC50 [1] was > 10000 nM and the Dmax [2] was < 30%.

In the case of `CN(CCOCc1cc(C(F)(F)F)c2cn(-c3cccc([C@H](c4nncn4C)C4CCC4)c3)c(=O)n2c1)C(=O)c1ccc(N2CCN(c3ccc4c(c3)CN([C@H]3CCC(=O)NC3=O)C4=O)CC2)cc1` (single isomer, unassigned) [Compound 148], the DC50 [1] is reported as 30 to 300 nM and the Dmax [2] is reported as 30 to 50%.

In the case of `Cn1cnnc1[C@@H](c1cccc(-n2cc3c(C(F)(F)F)cc(CN4CCC(OCc5cccc(C(=O)N6CCN(c7ccc8c(c7)CN([C@@H]7CCC(=O)NC7=O)C8=O)CC6)c5)CC4)cn3c2=O)c1)C1CCC1` (single isomer, unassigned) [Compound 153], the DC50 [1] is reported as > 10000 nM and the Dmax [2] is reported as < 30%.

`Cn1cnnc1[C@@H](c1cccc(-n2cc3c(C(F)(F)F)cc(CN4CCC(OCc5cccc(C(=O)N6CCN(c7ccc8c(c7)CN([C@H]7CCC(=O)NC7=O)C8=O)CC6)c5)CC4)cn3c2=O)c1)C1CCC1` (single isomer, unassigned) [Compound 154] was tested, and the DC50 [1] was 300 to 1000 nM and the Dmax [2] was 30 to 50%.

In the case of `Cn1cnnc1[C@@H](c1cccc(-n2cc3c(C(F)(F)F)cc(CN4CCC(OCc5ccc(N6CCN(c7ccc8c(c7)CN([C@@H]7CCC(=O)NC7=O)C8=O)CC6)cc5)CC4)cn3c2=O)c1)C1CCC1` (single isomer, unassigned) [Compound 155], the DC50 [1] is reported as > 10000 nM and the Dmax [2] is reported as < 30%.

With `Cn1cnnc1[C@@H](c1cccc(-n2cc3c(C(F)(F)F)cc(CN4CCC(OCc5ccc(N6CCN(c7ccc8c(c7)CN([C@H]7CCC(=O)NC7=O)C8=O)CC6)cc5)CC4)cn3c2=O)c1)C1CCC1` (single isomer, unassigned) [Compound 156] the DC50 [1] was < 30 nM and the Dmax [2] was 50 to 70%.

`Cn1cnnc1[C@@H](c1cccc(-n2cc3c(C(F)(F)F)cc(CN4CCC(OCc5ccc(C(=O)N6CCN(c7ccc8c(c7)CN([C@@H]7CCC(=O)NC7=O)C8=O)CC6)cc5)CC4)cn3c2=O)c1)C1CCC1` (single isomer, unassigned) [Compound 157] was tested, and the DC50 [1] was > 10000 nM and the Dmax [2] was < 30%.

In the case of `Cn1cnnc1[C@@H](c1cccc(-n2cc3c(C(F)(F)F)cc(CN4CCC(OCc5ccc(C(=O)N6CCN(c7ccc8c(c7)CN([C@H]7CCC(=O)NC7=O)C8=O)CC6)cc5)CC4)cn3c2=O)c1)C1CCC1` (single isomer, unassigned) [Compound 158], the DC50 [1] is reported as < 30 nM and the Dmax [2] is reported as > 70%.

In the case of `Cn1cnnc1[C@@H](c1cccc(-n2cc3c(C(F)(F)F)cc(CN4CCC(C5CCN(C(=O)c6ccc(N7CCN(c8ccc9c(c8)CN([C@@H]8CCC(=O)NC8=O)C9=O)CC7)cc6)CC5)CC4)cn3c2=O)c1)C1CCC1` (single isomer, unassigned) [Compound 161], the DC50 [1] is reported as 300 to 1000 nM and the Dmax [2] is reported as < 30%.
